From PMC4805251, “Novel Antimicrobial Peptides EeCentrocins 1, 2 and EeStrongylocin 2 from the Edible Sea Urchin Echinus esculentus Have 6-Br-Trp Post-Translational Modifications” (PLoS ONE, 2016)
Read-outs that look alike come from different tables or passages of the source. Bridge positions count the residues as written; N and C are the ends. Square brackets hold non-standard residues; d marks the D form. Ends that are not written are not given here. I, II: the chains in the order shown. Trp(6-Br) = N[C@@H](Cc1c[nH]c2cc(Br)ccc12)C(=O)O

Legend:
Format in all cases: cell-based
[1] = test system: Escherichia coli #1 (ATCC 25922)
Description: (§1) Organic phase extract, SPE eluates and HPLC-fractions were screened for antibacterial activity against two strains of Gram-positive and two strains of Gram-negative bacteria; Corynebacterium glutamicum (ATCC 13032), Staphylococcus aureus (ATCC 9144), Pseudomonas aeruginosa #1 (ATCC 27853) and Escherichia coli #1 (ATCC 25922). For extended antimicrobial bioactivity screening, the following bacterial strains were used, three strains of Gram-positive bacteria; S. epidermidis #1 (5179-R1) kindly provided by Holger Rohde, S. epidermidis #2, RP62A (ATCC 35984) and Bacillus subtilis (ATCC 23857) in addition to the Gram-negative P. aeruginosa #2, PA 01 (ATCC 15692, DSM 19880) and E. coli #2, NR 698 (MC4100/ptD4213).
(§2) Cultures stored at -80°C were smeared onto agar plates and cultured for 24 h at 35°C. One colony of each bacterial strain was transferred to 5 ml liquid Müller-Hinton (MH, Difco, Lawrence, KS, USA) medium in a glass tube and left shaking at room temperature overnight at 600 rpm. The cultures of actively growing bacteria (20 μl) were further inoculated in 5 ml MH medium and left shaking for 2 h at room temperature. The antibacterial assays were performed as previously described by. Briefly, the bacterial cultures were diluted with medium to 1.3–1.5 × 10^4 bacteria/ml final concentrations and an aliquot of 50 μl was added to each well in 96-well Nunclon^TM microtiter plates (Nagle Nunc Int., Denmark) preloaded with 50 μl test sample solutions, i.e. extracts, eluates or peptides.
(§3) The test plates were incubated for 24 h at 35°C with optical density (OD595) recorded every hour using an Envision 2103 multilabel reader, controlled by the Wallac Envision manager (PerkinElmer, CT, USA). Antibacterial activity was defined as a sample showing >90% inhibition (as measured by optical density) compared to the negative (growth) controls, consisting of bacteria and water. Oxytetracycline (20 μM) served as a positive (inhibition) control. The minimum inhibitory concentration (MIC) was defined as the lowest concentration of a sample displaying >90% inhibition.
(§4) ACN-phases and SPE eluates were tested with two-fold serial dilutions ranging from 5.0 to 0.005 mg/ml (5.0, 2.5, 1.25, 0.63, 0.31, 0.16, 0.08, 0.04, 0.02, 0.01, 0.005 mg/ml) whereas HPLC-fractions were tested undiluted for antibacterial activity. Pure, native peptides and synthetic peptides (described in section 2.11) were tested for antimicrobial activity in concentrations ranging from 100 to 0.1 μM in two-fold serial dilutions (100, 50, 25, 12.5, 6.25, 3.13, 1.56, 0.78, 0.39, 0.20, 0.10 μM). Antimicrobial assays involving natural peptides (i.e. fractionated natural material) were run only once due to limited quantities, whereas all other assays were run in triplicates.

[2] = test system: Pseudomonas aeruginosa #1 (ATCC 27853)
Description: as §1, §2, §3, §4

[3] = test system: Staphylococcus aureus (ATCC 9144)
Description: as §1, §2, §3, §4

[4] = test system: Corynebacterium glutamicum (ATCC 13032)
Description: as §1, §2, §3, §4

human red blood cells = assay: Haemolytic activity assay
Procedure: Synthesised peptide analogues of EeCentrocin 1 and 2 were screened for eukaryotic cell-toxicity with a haemolytic activity assay using human red blood cells as described previously. The assay was performed on 96-well U-shaped microtiter plates (Nagle Nunc) with 50 μl peptide sample, 40 μl phosphate-buffered saline (PBS) and 10 μl red blood cells. The final peptide concentrations ranged from 100 to 0.1 μM in two-fold serial dilutions. After one hour of incubation at 37°C in a shaker, the plate was centrifuged at 200 g for 5 min and the supernatants (60 μl) were carefully transferred to a new flat-bottomed polycarbonate microtiter plate (Nagle Nunc) and absorbance at 550 nm was measured on a Synergy H1 multimode reader (BioTek, VT, USA). Cell suspension added 0.05% Triton X-100 (Sigma-Aldrich, MO, USA) in PBS served as positive (100% haemolysis) control and cell suspension added PBS served as negative (0% haemolysis) control. The percent haemolysis was calculated using the formula [(Asample-Abaseline)/(Atriton-Abaseline)]×100. The experiment was performed in duplicates.

[5] = MH medium, 24 h at 35°C, OD595, >90% inhibition, value of Table 2, native peptides run once, synthetic in triplicates
[6] = MH medium, 24 h at 35°C, OD595, lowest concentration with >90% inhibition, value of Table 2, native peptides run once, synthetic in triplicates

I: G[Trp(6-Br)][Trp(6-Br)]RRTVDKVRNAGRKVAGFASKACGALGH-OH / II: DIGKYCGYAHALN-NH2 (disulfide I:25-II:6) [EeCentrocin 1]
MIC E. coli #1 ([1]; ATCC 25922, 24 h): 0.1 µM
MIC P. aeruginosa #1 ([2]; ATCC 27853, 24 h): 0.78 µM
MIC S. aureus ([3]; ATCC 9144, 24 h): 0.78 µM
MIC C. glutamicum ([4]; ATCC 13032, 24 h): 0.78 µM

Triton X-100 [Lysis (0.05% Triton X-100), reference compound]
Absorbance at 550nm, lysis control (human red blood cells): 0.24

XNPFKKIAHRXCYPKNE (bicyclic or more) [EeStrongylocin 2, cysteine-rich antimicrobial peptide from E. esculentus with 3 disulphide bonds and a 6-Br-Trp]
MIC E. coli #1 [1, 5]: 0.78 µM
MIC P. aeruginosa #1 [2, 5]: 1.56 µM
MIC S. aureus [3, 6]: 3.13 µM
MIC C. glutamicum [4, 6]: 1.56 µM
